Patent US11028099B2, “NRF2 activators” (GLAXOSMITHKLINE INTELLECTUAL PROPERTY DEVELOPMENT LIMITED, priority 2016, dated 2021)

Experiments:
[1] = target: T1, Kelch domain (321-609) of Keap1 / TAMRA-labeled NRF2 ETGE peptide (Homo sapiens, UniProt Q14145); assay: NRF2-Keap1 FP assay (Keap1 Kelch fluorescence polarization); type: binding; conditions: Keap1 (321-609) 20 nM, Tamra labelled peptide 8 nM
T1 construct: the Kelch domain (321-609) of Keap1 is used
Description: NRF2-Keap1 FP Assay One model for the NRF2-Keap1 interaction is through two binding sites in the Neh2 domain on NRF2. The two sites are referred to as the DLG binding motif (latch domain, uM affinity) and the ETGE binding motif (hinge domain, nM affinity). The Keap1 protein consists of an N-terminal region (NTR), a broad complex, tramtrack, and brick a brac domain (BTB), an intervening region (IVR), a double glycine repeat domain (DGR or Kelch), and a C-terminal region. The DLG and ETGE motifs of NRF2's Neh2 domain bind to the Kelch domain of Keap1 at different affinities. In the Keap1 Kelch fluorescence polarization (FP) assay, a TAMRA-labeled 16 mer peptide (AFFAQLQLDEETGEFL) containing the ETGE motif of NRF2 and the Kelch domain (321-609) of Keap1 is used. The assay determines if a compound interferes with the binding between Keap1 […] and the TAMRA-labeled peptide. Binding of TAMRA-labeled NRF2 peptide to Keap1 (321-609) results in a high FP signal. If a compound interferes with the binding between the peptide and the protein, it will cause the assay signal to decrease. Thus, assay signal is inversely proportional to binding inhibition. FP Assay:
100 nl of 100× compound dose response curves (serial 3-fold dilutions) in DMSO are stamped using an Echo liquid handling system (Labcyte) into 384-well low volume black assay plates (Greiner, #784076), with DMSO in columns 6 and 18. […] The plates are spun at 500 rpm for 1 min, incubated for 1 hr at room temperature, and read on an Analyst GT (Molecular Devices) equipped with excitation (530/25 nm) and emission (580/10 nm) filters designed for Tamra probes. […] Fluorescence measurements, represented as mP, are used in the transformation of the data. Compound activity is calculated based on percent inhibition, normalized against controls in the assay (Control 1 contains the Tamra peptide and Keap1 (321-609) together (0% response) and control 2 contains the Tamra peptide alone (100% response)). Data analysis is handled using the software package Abase XE (Surrey, United Kingdom. The % inhibition values are calculated by the equation: […]

[2] = system: NQO1 specific activity induction (marker for NRF2 activation) in BEAS-2B cells; assay: BEAS-2B NQO1 MTT assay; type: cell-based; conditions: Homo sapiens, 48 hours with compound
Description: NAD(P)H:quinone oxidoreductase 1 (NQO1), also called DT diaphorase, is a homodimeric FAD-containing enzyme that catalyzes obligatory NAD(P)H-dependent two-electron reductions of quinones and protects cells against the toxic and neoplastic effects of free radicals and reactive oxygen species arising from one-electron reductions. The transcription of NQO1 is finely regulated by NRF2, and thus NQO1 activity is a good marker for NRF2 activation. On day one, frozen BEAS-2B cells (ATCC) are thawed in a water bath, counted, and re-suspended at a concentration of 250,000 cells/mL. Fifty microliters of cells are plated in 384 well black clear-bottomed plates. Plates are incubated at 37° C., 5% CO2 overnight. On day two, plates are centrifuged and 50 nL of compound or controls are added to the cells. Plates are then incubated at 37° C., 5% CO2 for 48 hours. On day four, medium is aspirated from the plate and crude cell lysates are made by adding 13 uL of 1× Cell Signaling Technologies lysis buffer with 1 Complete, Mini, EDTA-free Protease Inhibitor Tablet (Roche) for each 10 mL of lysis buffer. After lysis plates are incubated for 20 minutes at room temperature. Two microliters of lysate are removed for use in Cell Titer Glo assay (Promega) and MTT cocktail is prepared (Prochaska et. al. 1998) for measurement of NQO1 activity. Fifty microliters of MTT cocktail is added to each well, plate is centrifuged, and analyzed on an Envision plate reader (Perkin Elmer) using Absorbance 570 nm label for 30 minutes. Product formation is measured kinetically and the EC50 of NQO1 specific activity induction is calculated by plotting the change in absorbance (Delta OD/min) versus the log of compound concentration followed by 3-parameter fitting.

Rat PK = type: in vivo; conditions: oral bioavailability
[3] = target: T2, full length Keap1 protein / full length NRF2 protein (Homo sapiens, UniProt Q14145); assay: NRF2-Keap1 TR-FRET assay; type: binding; conditions: full length Keap1-FlagHis and biotin-NRF2
T2 construct: full length NRF2 protein and full length Keap1 protein (Keap1 exists a dimer) are used
T2 sequence (Q14145 whole entry): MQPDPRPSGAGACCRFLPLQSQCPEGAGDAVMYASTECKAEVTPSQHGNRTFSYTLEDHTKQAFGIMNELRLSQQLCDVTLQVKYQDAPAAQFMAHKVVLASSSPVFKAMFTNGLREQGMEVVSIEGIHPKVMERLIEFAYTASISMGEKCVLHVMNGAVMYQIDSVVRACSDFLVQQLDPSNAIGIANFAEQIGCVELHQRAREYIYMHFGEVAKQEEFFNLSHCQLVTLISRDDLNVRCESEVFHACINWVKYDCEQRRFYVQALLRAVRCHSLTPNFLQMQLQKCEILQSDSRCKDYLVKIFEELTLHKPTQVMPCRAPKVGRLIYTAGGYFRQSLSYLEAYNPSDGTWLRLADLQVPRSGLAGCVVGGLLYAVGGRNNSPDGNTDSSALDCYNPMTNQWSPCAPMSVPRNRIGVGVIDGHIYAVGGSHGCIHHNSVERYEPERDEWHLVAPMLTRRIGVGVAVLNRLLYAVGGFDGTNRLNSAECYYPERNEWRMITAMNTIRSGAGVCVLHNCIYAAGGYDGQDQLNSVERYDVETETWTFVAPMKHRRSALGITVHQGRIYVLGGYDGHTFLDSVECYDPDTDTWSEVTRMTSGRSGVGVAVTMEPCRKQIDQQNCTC
Description: In the NRF2-Keap1 TR-FRET (time-resolved fluorescence resonance energy transfer) assay, full length NRF2 protein and full length Keap1 protein (Keap1 exists a dimer) are used. The assay detects the ability of compound to displace the binding of FlagHis-tagged Keap1 with biotinylated, Avi-tagged NRF2 protein. Biotin-NRF2 binds to streptavidin-europium (a component of the detection mix) and Keap1-FlagHis is recognized by anti-Flag APC (allophycocyanin) antibody (also a component of the detection mix). If binding occurs between the two proteins, there will be an energy transfer from the Eu+3 (donor) at 615 nm to the APC (acceptor) at 665 nm. A potential Keap1 inhibitor will cause a reduction in the TR-FRET signal by interfering with the binding of Keap1 to NRF2.
One hundred nanoliters of 100× compound dose response curves (serial 3-fold dilutions) in DMSO are stamped using an Echo liquid handling system (Labcyte) into 384-well, low volume, black assay plates (Greiner, #784076), with DMSO in columns 6 and 18. The top concentration of compound is located in columns 1 and 13. All reagents are diluted in assay buffer (50 mM Tris, pH 8.0, 5 mM MgCl2, 100 mM NaCl, 0.005% BSA, 1 mM DTT, and 2 mM CHAPS). The BSA, DTT, and CHAPS are added to the assay buffer on the day of assay. […] Plates are spun at 500 rpm for 1 minute, incubated for 1 hour at RT, and read on an Envision plate reader using a 320 nm excitation filter and 615 nm and 665 nm emission filters. Compound response (% inhibition) and potency (pIC50) are calculated based on the ratio of the two emissions (665 nm/615 nm) and then the transformed data is normalized against controls in the assay (control 1=1% DMSO in the presence of NRF2 and Keap1 protein and control 2=1% DMSO in the absence of protein). […] The % inhibition values are calculated from the ratio (transformed) data by the equation: 100−(100*(compound response−average control 2)/(average control 1−average control2)). […]

Dog PK study = type: in vivo; conditions: for Dog PK Fpo: male beagle dogs, nominal 1 mg/kg, oral gavage solution vs 60-minute intravenous infusion, cassette, non-crossover
Protocol: One hundred nanoliters of 100× compound dose response curves (serial 3-fold dilutions) in DMSO are stamped using an Echo liquid handling system (Labcyte) into 384-well, low volume, black assay plates (Greiner, #784076), with DMSO in columns 6 and 18. The top concentration of compound is located in columns 1 and 13. All reagents are diluted in assay buffer (50 mM Tris, pH 8.0, 5 mM MgCl2, 100 mM NaCl, 0.005% BSA, 1 mM DTT, and 2 mM CHAPS). The BSA, DTT, and CHAPS are added to the assay buffer on the day of assay. Using a Multidrop Combi (Thermo Electron Corporation) equipped with a metal tip dispenser, 5 ul of 25 nM Keap1-FlagHis protein is added to all wells of the compound plate, with the exception of the wells in column 18. Wells in column 18 receive 5 ul of assay buffer instead. Plates are centrifuged at 500 rpm for 1 minute, covered with a plate lid, and incubated at 37° C. for 2.25 hours. Plates are then removed from the incubator and allowed to cool to RT for 15 minutes. Five microliters of 50 nM biotin-NRF2 protein is then added to all wells of the plates and the plates are spun at 500 rpm for 1 minute, followed by incubating at 4° C. for 1.25 hours. The plates are then allowed to warm to RT for 15 minutes, followed by the addition of 10 ul of detection mix (1 nM Streptavidin Eu+ W1024 and 5 ug/ml mouse anti-DYKDDDDK IgG conjugated to SureLight APC antibody; both from Columbia Biosciences) to all wells. Plates are spun at 500 rpm for 1 minute, incubated for 1 hour at RT, and read on an Envision plate reader using a 320 nm excitation filter and 615 nm and 665 nm emission filters. Compound response (% inhibition) and potency (pIC50) are calculated based on the ratio of the two emissions (665 nm/615 nm) and then the transformed data is normalized against controls in the assay (control 1=1% DMSO in the presence of NRF2 and Keap1 protein and control 2=1% DMSO in the absence of protein). Data analysis is handled using the software package Abase XE (Surrey, United Kingdom). The % inhibition values are calculated from the ratio (transformed) data by the equation: 100−(100*(compound response−average control 2)/(average control 1−average control2)). For calculation of pIC50s, Abase XE uses a four parameter equation. Dog PK Study
All studies were conducted after review by the GSK Institutional Animal Care and Use Committee and in accordance with the GSK Policy on the Care, Welfare and Treatment of Laboratory Animals. A pre-study health examination that included a physical exam and complete blood count was performed on the animals prior to use on study. A catheter was temporarily placed in a cephalic or saphenous vein for sample collection on the study day. The animals were fasted overnight prior to dosing; food provided after the 4-hour blood sample was collected. The intravenous and oral solution pharmacokinetic studies were carried out using a non-crossover design; a total of four male beagle dogs were used, two per route of administration.
The dose for intravenous administration was prepared as a cassette of up to five test compounds in 20% Cavitron™ and 5% DMSO. The intravenous dose formulation was filtered through a 0.22-micron polytetrafluoroethylene (PTFE) filter prior to administration. The dose for oral solution administration was prepared as a cassette of up to five compounds in 6% Cavitron™ and 5% DMSO and was filtered through a 0.22 micron VWR PTFE filter prior to administration. […]

T1 sequence (Q14145 321-609): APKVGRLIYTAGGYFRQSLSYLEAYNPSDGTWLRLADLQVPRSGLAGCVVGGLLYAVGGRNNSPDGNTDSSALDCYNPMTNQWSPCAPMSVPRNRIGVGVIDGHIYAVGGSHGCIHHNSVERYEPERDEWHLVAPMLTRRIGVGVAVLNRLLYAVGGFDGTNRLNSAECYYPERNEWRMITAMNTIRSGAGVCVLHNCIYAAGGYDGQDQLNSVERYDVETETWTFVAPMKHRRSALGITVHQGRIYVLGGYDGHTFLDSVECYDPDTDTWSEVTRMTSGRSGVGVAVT

IC50 [1] [nM]	Rat PK Fpo (Rat PK) [%]	IC50 [3] [nM]	difference in the dog oral bioavailability (Dog PK study; compound of the invention versus the S-isomer, dog) [fold]	Dog PK Fpo (Dog PK study) [%]	Dog PK Fpo (Dog PK study; listed as compound of the invention) [%]	Dog PK Fpo (Dog PK study; listed as S-isomer) [%]	SMILES	EC50 [2] [nM]
63	177	25	–	–	–	–	CC[C@@H]1CN(Cc2cc(C(CC(=O)O)c3ccc4c(nnn4C)c3C)ccc2C)Cc2ncccc2O1 (mixture of isomers) [Beta-stereocenter 50/50 mixture, 3-(1,4-Dimethyl-1H-benzo[d][1,2,3]triazol-5-yl)-3-(3-(((R)-2-ethyl-2,3-dihydropyrido[2,3-t][1,4]oxazepin-4(5H)-yl)methyl)-4-methylphenyl)propanoic acid]	20
40	129	16	~5	52	52	–	CC[C@@H]1CN(Cc2cc([C@@H](CC(=O)O)c3ccc4c(nnn4C)c3C)ccc2C)Cc2ncccc2O1 [Formula (I) R-beta-stereocenter isomer, (R)-3-(1,4-dimethyl-1H-benzo[d][1,2,3]triazol-5-yl)-3-(3-(((R)-2-ethyl-2,3-dihydropyrido[2,3-f][1,4]oxazepin-4(5H)-yl)methyl)-4-methylphenyl)propanoic acid]	20
50	78	12	–	11	–	11	CC[C@@H]1CN(Cc2cc([C@H](CC(=O)O)c3ccc4c(nnn4C)c3C)ccc2C)Cc2ncccc2O1 [S-beta-stereocenter isomer, (S)-3-(1,4-dimethyl-1H-benzo[d][1,2,3]triazol-5-yl)-3-(3-(((R)-2-ethyl-2,3-dihydropyrido[2,3-f][1,4]oxazepin-4(5H)-yl)methyl)-4-methylphenyl)propanoic acid]	16
